Measured values: US20250163057A1, “DCN-1 MODULATING COMPOUNDS AND METHODS OF USE THEREOF” (Cellarity, Inc., priority 2023, published 2025)
Where two headings read alike, the source gives them in different places.

Target: DCN1 (DCUND1) protein PONY domain (Homo sapiens (Human), UniProt Q96GG9)
Assay: TR-FRET assay, DCN1 binding with FAM-labeled probe
Description: A TR-FRET assay was performed to evaluate the ability of the compounds to bind the DCN-1 protein.
The TR-FRET assay was designed following the Scott et al. protocol (Scott et al., Nat Chem Biol. 2017 August; 13(8): 850-857. Doi:10.1038/nchembio.2386). The recombinant form of the DCN1 (DCUND1) protein PONY domain was produced using an E. coli expression system at Viva Biotech (China). The DCN1 protein was biotinylated (EZ sulfo-NHS-LC-biotin; Thermofisher) for labeling with streptavidin terbium (Tb) cryptate in the reaction. The probe was changed to a non-covalent DCN1 inhibitor labeled with carboxyfluorescein (FAM; Zhou et al., Nat Commun. 2017; 8: 1150. Doi: 10.1038/s41467-017-01243-7). Buffer conditions were modified to enhance protein stability by exchanging Tween20 for TritonX and increasing NaCl to 200 mM. The compounds were screened against 5 nM DCN1 and 20 nM FAM-probe or 0.31 nM DCN1 and 900 nM total probe (100 nM FAM-labeled plus 800 nM unlabeled). The TR-FRET ratio between Tb-DCN1 and the FAM-labeled probe was measured in a 384-well opti-plate (Perkin Elmer) using a plate reader (BMG) at 1, 5, and 24 hrs after treatment with compound (final DMSO concentration of 0.1%).

[1] = 24 hr after treatment with compound, read-out: TR FRET IC50 24 hr
[2] = TR FRET IC50 1 hr (nM), 1 hr after treatment with compound

DCN1 (DCUND1) protein PONY domain, sequence (Q96GG9 60-248): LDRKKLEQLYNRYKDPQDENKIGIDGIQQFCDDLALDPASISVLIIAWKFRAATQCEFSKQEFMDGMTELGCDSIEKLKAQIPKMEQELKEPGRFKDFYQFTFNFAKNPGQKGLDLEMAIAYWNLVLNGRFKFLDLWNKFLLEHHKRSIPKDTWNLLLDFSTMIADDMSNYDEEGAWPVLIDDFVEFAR

Row | SMILES | IC50 [1] [nM] | IC50 [2] [nM] | IC50 (read-out: TR FRET IC50 1 hr, 1 hr after treatment with compound) [nM]
1 | CCN1C(=O)[C@@H](NC(=O)Cc2cccc(C(F)(F)F)c2)[C@@H](C2CC2)c2c(C(=O)N3[C@H](C#N)C[C@H]4C[C@H]43)nn(C3CCOCC3)c21 [Compound I-592] | 1000 to 3000 | 1000 to 3000 | 
2 | CCN1C(=O)[C@@H](NC(=O)c2cccc(C(F)(F)F)c2)[C@@H](c2ccc(F)cc2)c2c([C@@H](O)CNC#N)nn(-c3ccccc3)c21 [Compound I-130] | 200 to 1000 | 200 to 1000 | 
3 | CCN1C(=O)[C@@H](NC(=O)c2cccc(C(F)(F)F)c2)[C@@H](C2CC2)c2c(CNC#N)nn(-c3ccccc3)c21 (racemic) [Compound I-98] | ≤ 200 | 200 to 1000 | 
4 | CCN1C(=O)[C@@H](NC(=O)c2cccc(C(F)(F)F)c2)[C@@H](c2ccc(F)cc2)c2c(C(=O)NC(C)(C)C#N)nn(-c3ccccc3)c21 (racemic) [Compound I-31, rac-(4R,5R)—N-(2-cyanopropan-2-yl)-7-ethyl-4-(4-fluorophenyl)-6-oxo-1-phenyl-5-(3-(trifluoromethyl)benzamido)-4,5,6,7-tetrahydro-1H-pyrazolo[3,4-b]pyridine-3-carboxamide] | 1000 to 3000 | 1000 to 3000 | 
5 | CCN1C(=O)[C@@H](NC(=O)c2cccc(C(F)(F)F)c2)[C@@H](c2ccc(F)cc2)c2c(NC(=O)C(C)(C)C#N)nn(-c3ccccc3)c21 (racemic) [Compound I-63] | 200 to 1000 |  | 
6 | CCN1C(=O)[C@@H](NC(=O)C2CCOc3ccccc32)[C@@H](C2CC2)c2c(C(=O)N3[C@H](C#N)C[C@H]4C[C@H]43)nn(C3CCOCC3)c21 (some centres unmarked) [Compound I-598] | 1000 to 3000 | 1000 to 3000 | 
7 | C=C(CN1CC(F)(F)C1)C(=O)NCc1nn(-c2ccccc2)c2c1[C@H](c1ccc(F)cc1)[C@H](NC(=O)c1cccc(C(F)(F)F)c1)C(=O)N2CC (racemic) [Compound I-95] | 200 to 1000 | 200 to 1000 | 
8 | CCN1C(=O)[C@@H](NC(=O)c2cccc(C(F)(F)F)c2)[C@@H](c2ccc(F)cc2)c2c(C/C=C/C(=O)NCCN(C)C)nn(-c3ccccc3)c21 [Compound I-118] | 200 to 1000 | 200 to 1000 | 
9 | CCN1C(=O)[C@@H](NC(=O)c2cnn(CC(F)(F)F)c2)[C@@H](C2CC2)c2c(C(=O)N3[C@H](C#N)C[C@H]4C[C@H]43)nn(C3CCOCC3)c21 [Compound I-507] | 1000 to 3000 | 1000 to 3000 | 
10 | CCN1C(=O)[C@@H](NC(=O)c2cccc(C(F)(F)F)c2)[C@@H](c2ccc(F)cc2)c2c(CNC(=O)/C=C/C(=O)O)nn(-c3ccccc3)c21 (racemic) [Compound I-59, rac-I-4-((((4R,5R)-7-ethyl-4-(4-fluorophenyl)-6-oxo-1-phenyl-5-(3-(trifluoromethyl)benzamido)-4,5,6,7-tetrahydro-1H-pyrazolo[3,4-b]pyridine-3-yl)methyl)amino)-4-oxobut-2-enoic acid] | 1000 to 3000 | 1000 to 3000 | 
11 | CCN1C(=O)[C@@H](NC(=O)c2cccc(C(F)(F)F)c2)[C@@H](c2ccc(F)cc2)c2c(CC/C=C\C(N)=O)nn(-c3ccccc3)c21 (racemic) [Compound I-142] | 200 to 1000 | 200 to 1000 | 
12 | CCN1C(=O)[C@@H](NC(=O)c2cccc(N3CCCC3=O)c2)[C@@H](C2CC2)c2c(C(=O)N3[C@H](C#N)C[C@H]4C[C@H]43)nn(C3CCOCC3)c21 [Compound I-505] | 1000 to 3000 | 1000 to 3000 | 
13 | CCN1C(=O)[C@@H](NC(=O)C2=NN(c3ccccc3)C(=O)C2)[C@@H](C2CC2)c2c(C(=O)N3[C@H](C#N)C[C@H]4C[C@H]43)nn(C3CCOCC3)c21 [Compound I-591] | 1000 to 3000 | 1000 to 3000 | 
14 | CCN1C(=O)[C@@H](NC(=O)c2cccc(C(F)(F)F)c2)[C@@H](c2ccc(F)cc2)c2c(CNC(=O)/C=C/C(=O)NCCO)nn(-c3ccccc3)c21 (racemic) [Compound I-15, rac-N1-(((4R,5R)-7-ethyl-4-(4-fluorophenyl)-6-oxo-1-phenyl-5-(3-(trifluoromethyl)benzamido)-4,5,6,7-tetrahydro-1H-pyrazolo[3,4-b]pyridine-3-yl)methyl)-N4-(2-hydroxyethyl)fumaramide] | 1000 to 3000 | 1000 to 3000 | 
15 | CCN1C(=O)[C@@H](NC(=O)c2ccn(C(C)C)n2)[C@@H](C2CC2)c2c(C(=O)N3[C@H](C#N)C[C@H]4C[C@H]43)nn(C3CCOCC3)c21 [Compound I-472] | ≤ 200 | 200 to 1000 | 
16 | CCN1C(=O)[C@@H](NC(=O)C2CC(C)C2)[C@@H](C2CC2)c2c(C(=O)N3[C@H](C#N)C[C@H]4C[C@H]43)nn(C3CCOCC3)c21 (some centres unmarked) [Compound I-655] | 1000 to 3000 | 1000 to 3000 | 
17 | C=C(Cc1nn(-c2ccccc2)c2c1[C@H](c1ccc(F)cc1)[C@H](NC(=O)c1cccc(C(F)(F)F)c1)C(=O)N2CC)C(N)=O (racemic) [Compound I-105, rac-N-((4R,5R)-3-(2-carbamoylallyl)-7-ethyl-4-(4-fluorophenyl)-6-oxo-1-phenyl-4,5,6,7-tetrahydro-1H-pyrazolo[3,4-b]pyridin-5-yl)-3-(trifluoromethyl)benzamide] | 200 to 1000 | 200 to 1000 | 
18 | C=C(Cc1nn(-c2ccccc2)c2c1[C@H](c1ccc(F)cc1)[C@H](NC(=O)c1cccc(C(F)(F)F)c1)C(=O)N2CC)C(=O)OC(C)(C)C (racemic) [Compound I-78, rac-tert-butyl 2-(((4R,5R)-7-ethyl-4-(4-fluorophenyl)-6-oxo-1-phenyl-5-(3-(trifluoromethyl)benzamido)-4,5,6,7-tetrahydro-1H-pyrazolo[3,4-b]pyridin-3-yl)methyl)acrylate] | 1000 to 3000 | 1000 to 3000 | 
19 | CCN1C(=O)[C@@H](NC(=O)C2(c3ccccc3)CC2)[C@@H](C2CC2)c2c(C(=O)N3[C@H](C#N)C[C@H]4C[C@H]43)nn(C3CCOCC3)c21 [Compound I-419] | 1000 to 3000 | 1000 to 3000 | 
20 | CCN1C(=O)[C@@H](NC(=O)c2ccc(C3CC3)cc2)[C@@H](C2CC2)c2c(C(=O)N3[C@H](C#N)C[C@H]4C[C@H]43)nn(C3CCOCC3)c21 [Compound I-508] | ≤ 200 | 1000 to 3000 | 
21 | CCN1C(=O)[C@@H](NC(=O)c2cccc(C(F)(F)F)c2)[C@@H](c2ccc(F)cc2)c2c(C(=O)NCCC#N)nn(-c3ccccc3)c21 (racemic) [Compound I-81, rac-(4R,5R)—N-(2-cyanoethyl)-7-ethyl-4-(4-fluorophenyl)-6-oxo-1-phenyl-5-(3-(trifluoromethyl)benzamido)-4,5,6,7-tetrahydro-1H-pyrazolo[3,4-b]pyridine-3-carboxamide] | 1000 to 3000 | 1000 to 3000 | 
22 | CCN1C(=O)[C@@H](NC(=O)CC2CC(=O)c3ccc(OC)cc32)[C@@H](C2CC2)c2c(C(=O)N3[C@H](C#N)C[C@H]4C[C@H]43)nn(C3CCOCC3)c21 (some centres unmarked) [Compound I-618] | 1000 to 3000 | 1000 to 3000 | 
23 | CCN1C(=O)[C@@H](NC(=O)c2cccc(C(F)(F)F)c2)[C@@H](c2ccc(F)cc2)c2c(C/C=C/C(=O)NCCO)nn(-c3ccccc3)c21 (racemic) [Compound I-36] | 1000 to 3000 | 1000 to 3000 | 
24 | CCN1C(=O)[C@@H](NC(=O)c2cccc(C(F)(F)F)c2)[C@@H](c2ccc(F)cc2)c2c(CC/C=C/C(=O)N(C)C)nn(-c3ccccc3)c21 (racemic) [Compound I-48] | ≤ 200 |  | ≤ 200
25 | CCN1C(=O)[C@@H](NC(=O)c2cccc(C(F)(F)F)c2)[C@@H](c2ccc(F)cc2)c2c(CNC(=O)C#CCN3CCOCC3)nn(-c3ccccc3)c21 (racemic) [Compound I-68, ˜{N}—[˜{rac}-(4˜{S},5˜{S})-7-ethyl-4-(4-fluorophenyl)-3-[(4-morpholinobut-2-ynoylamino)methyl]-6-oxo-1-phenyl-4,5-dihydropyrazolo[3,4-b]pyridine-5-yl]-3-(trifluoromethyl)benzamide] | 200 to 1000 | 200 to 1000 | 
26 | CCN1C(=O)[C@@H](NC(=O)CC2=C(C)Cc3ccc(F)cc32)[C@@H](C2CC2)c2c(C(=O)N3[C@H](C#N)C[C@H]4C[C@H]43)nn(C3CCOCC3)c21 [Compound I-504] | 1000 to 3000 | 1000 to 3000 | 
27 | CCN1C(=O)[C@@H](NC(=O)c2ccc3c(c2)OCCO3)[C@@H](C2CC2)c2c(C(=O)N3[C@H](C#N)C[C@H]4C[C@H]43)nn(C3CCOCC3)c21 [Compound I-695] | 1000 to 3000 | 1000 to 3000 | 
28 | CCN1C(=O)[C@@H](NC(=O)c2cccc(C(F)(F)F)c2)[C@@H](c2ccc(F)cc2)c2c(C(=O)N[C@H](C)C#N)nn(-c3ccccc3)c21 (mixture of isomers) [Compound I-157] | 200 to 1000 | 1000 to 3000 | 
29 | CCN1C(=O)[C@@H](NC(=O)c2cccc(C(F)(F)F)c2)[C@@H](c2ccc(F)cc2)c2c(CC/C=C/C(=O)OC)nn(-c3ccccc3)c21 (racemic) [Compound I-128, rac-methyl (E)-5-((4R,5R)-7-ethyl-4-(4-fluorophenyl)-6-oxo-1-phenyl-5-(3-(trifluoromethyl)benzamido)-4,5,6,7-tetrahydro-1H-pyrazolo[3,4-b]pyridin-3-yl)pent-2-enoate] | 200 to 1000 | 1000 to 3000 | 
30 | CCN1C(=O)[C@@H](NC(=O)CC(C)(C)C)[C@@H](C2CC2)c2c(C(=O)N3[C@H](C#N)C[C@H]4C[C@H]43)nn(C3CCOCC3)c21 [Compound I-424] | 1000 to 3000 | 1000 to 3000 | 
